Results: ChEMBL document CHEMBL1201862, “PubChem BioAssay data set” (2004)
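Five compound concentrations were applied to cells in 96-well plates for 48 hours; endpoints were derived by simple linear interpolation of the resulting dose-response curve. GI50: concentration for 50% inhibition of growth.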 Active and inactive are the calls of the source. No stated cut-off is given here; in the data, active = GI50 up to about 1.1 µM and inactive = higher.

Columns and labels:
Test in all cases: DTP human tumour cell line panel, 48 h
786-0 = test system: 786-0
A498 = test system: A498
A549 = test system: A549
ACHN = test system: ACHN
BT-549 = test system: BT-549
CCRF-CEM = test system: CCRF-CEM
COLO 205 = test system: COLO 205
DU-145 = test system: DU-145
EKVX = test system: EKVX
HCC 2998 = test system: HCC 2998
HCT-116 = test system: HCT-116
HCT-15 = test system: HCT-15
HL-60 = test system: HL-60
HOP-62 = test system: HOP-62
HOP-92 = test system: HOP-92
HT-29 = test system: HT-29
IGROV-1 = test system: IGROV-1
K562 = test system: K562
KM12 = test system: KM12
LOX IMVI = test system: LOX IMVI
M14 = test system: M14
MCF7 = test system: MCF7
MDA-MB-231 = test system: MDA-MB-231
MDA-MB-435 = test system: MDA-MB-435
MDA-N = test system: MDA-N
MOLT-4 = test system: MOLT-4
Malme-3M = test system: Malme-3M
NCI-H226 = test system: NCI-H226
NCI-H23 = test system: NCI-H23
NCI-H460 = test system: NCI-H460
NCI/ADR-RES = test system: NCI/ADR-RES
OVCAR-3 = test system: OVCAR-3
OVCAR-4 = test system: OVCAR-4
OVCAR-5 = test system: OVCAR-5
PC-3 = test system: PC-3
RPMI-8226 = test system: RPMI-8226
RXF 393 = test system: RXF 393
SF-268 = test system: SF-268
SF-539 = test system: SF-539
SK-MEL-28 = test system: SK-MEL-28
SK-MEL-2 = test system: SK-MEL-2
SK-MEL-5 = test system: SK-MEL-5
SK-OV-3 = test system: SK-OV-3
SN12C = test system: SN12C
SNB-19 = test system: SNB-19
SR = test system: SR
SW-620 = test system: SW-620
T47D = test system: T47D
TK-10 = test system: TK-10
U-251 = test system: U-251
UACC-257 = test system: UACC-257
UACC-62 = test system: UACC-62
UO-31 = test system: UO-31
CAKI-1 = test system: CAKI-1
Hs-578T = test system: Hs-578T
NCI-H522 = test system: NCI-H522
OVCAR-8 = test system: OVCAR-8
SF-295 = test system: SF-295
SNB-75 = test system: SNB-75

Measured: GI50

N#Cc1c(N)c(C#N)c2c(c1-c1ccc(Cl)cc1)COc1ccccc1-2
31.8 µM: HCT-15
inactive: 786-0 3.02 µM | A498 18.2 µM | A549 14.5 µM | ACHN 13.7 µM | BT-549 29.9 µM | CCRF-CEM 16.5 µM | COLO 205 48 µM | DU-145 21.6 µM | EKVX 9.14 µM | HCC 2998 17.4 µM | HCT-116 12.2 µM | HL-60 25.4 µM | HOP-62 14.9 µM | HOP-92 15.3 µM | HT-29 13.2 µM | IGROV-1 20.4 µM | K562 16.5 µM | KM12 28.6 µM | LOX IMVI 29.7 µM | M14 38.6 µM | MCF7 29 µM | MDA-MB-231 24.2 µM | MDA-MB-435 31.7 µM | MDA-N 18.5 µM | MOLT-4 11.4 µM | Malme-3M 22 µM | NCI-H226 32.1 µM | NCI-H23 16.7 µM | NCI-H460 30.3 µM | NCI/ADR-RES 20.9 µM | OVCAR-3 13.7 µM | OVCAR-4 11.1 µM | OVCAR-5 24.9 µM | PC-3 16.8 µM | RPMI-8226 3.27 µM | RXF 393 15.4 µM | SF-268 29.4 µM | SF-539 18.5 µM | SK-MEL-28 16.5 µM | SK-MEL-2 22 µM | SK-MEL-5 22 µM | SK-OV-3 18.4 µM | SN12C 12.4 µM | SNB-19 14.5 µM | SR 11.4 µM | SW-620 32.6 µM | T47D 18.8 µM | TK-10 14.6 µM | U-251 14.7 µM | UACC-257 44.1 µM | UACC-62 30.1 µM | UO-31 4.04 µM

COc1ccc(/C(=N\Nc2ccccn2)c2ccccn2)cc1
inactive: A498 38.2 µM | HCC 2998 2.93 µM | OVCAR-4 11.4 µM | OVCAR-5 2.54 µM | RXF 393 2.59 µM | SK-MEL-2 3.37 µM
0.0103 µM: HCT-15
active: 786-0 < 0.0162 µM | A549 0.149 µM | ACHN < 0.01 µM | BT-549 0.818 µM | CAKI-1 < 0.01 µM | CCRF-CEM < 0.01 µM | COLO 205 < 0.01 µM | DU-145 0.29 µM | EKVX < 0.01 µM | HCT-116 < 0.01 µM | HL-60 < 0.01 µM | HOP-62 0.217 µM | HOP-92 < 0.045 µM | HT-29 < 0.01 µM | Hs-578T 0.625 µM | IGROV-1 0.0167 µM | K562 < 0.0107 µM | KM12 0.16 µM | M14 < 0.01 µM | MCF7 < 0.01 µM | MDA-MB-231 < 0.0193 µM | MDA-MB-435 0.156 µM | MDA-N 0.631 µM | MOLT-4 < 0.01 µM | Malme-3M < 0.01 µM | NCI-H226 < 0.01 µM | NCI-H23 0.0272 µM | NCI-H460 < 0.0287 µM | NCI-H522 < 0.01 µM | NCI/ADR-RES < 0.01 µM | OVCAR-3 < 0.01 µM | OVCAR-8 < 0.01 µM | PC-3 0.0306 µM | RPMI-8226 < 0.0268 µM | SF-268 0.0311 µM | SF-295 0.301 µM | SF-539 0.0627 µM | SK-MEL-28 0.336 µM | SK-MEL-5 0.0303 µM | SK-OV-3 0.107 µM | SN12C < 0.01 µM | SNB-19 0.544 µM | SNB-75 0.414 µM | SR 0.0547 µM | SW-620 < 0.01 µM | U-251 < 0.0178 µM | UACC-257 < 0.01 µM | UACC-62 0.104 µM | UO-31 0.0405 µM

COc1cc(C(=O)NNC(=O)c2cc(Br)ccc2NC(=O)c2cccs2)cc(OC)c1OC
15.5 µM: HCT-15
active: K562 < 0.01 µM
inactive: 786-0 17.7 µM | A498 19.1 µM | A549 21.2 µM | ACHN 17 µM | BT-549 22.3 µM | CAKI-1 29 µM | CCRF-CEM 18.1 µM | COLO 205 12.9 µM | DU-145 29.3 µM | EKVX 6.65 µM | HCT-116 18.7 µM | HL-60 14.8 µM | HOP-62 16.3 µM | HOP-92 15.3 µM | HT-29 19.5 µM | Hs-578T 20.9 µM | IGROV-1 22.6 µM | KM12 22.8 µM | LOX IMVI 15.3 µM | M14 19.3 µM | MCF7 14.4 µM | MDA-MB-435 19.8 µM | MDA-N 24.8 µM | MOLT-4 27.1 µM | Malme-3M 23.2 µM | NCI-H226 13.7 µM | NCI-H23 19.4 µM | NCI-H460 20.2 µM | NCI-H522 20.7 µM | NCI/ADR-RES 18.5 µM | OVCAR-3 24.2 µM | OVCAR-4 12 µM | OVCAR-5 16.4 µM | OVCAR-8 19.1 µM | PC-3 24 µM | RPMI-8226 13.2 µM | RXF 393 13.1 µM | SF-268 9.64 µM | SF-295 19.1 µM | SF-539 15.4 µM | SK-MEL-2 18.6 µM | SK-MEL-5 13.8 µM | SK-OV-3 9.16 µM | SN12C 20 µM | SNB-19 23.1 µM | SNB-75 4.91 µM | SR 22.9 µM | SW-620 28.1 µM | T47D 19.5 µM | TK-10 25.3 µM | U-251 17.1 µM | UACC-257 22.5 µM | UACC-62 16.7 µM | UO-31 14.4 µM

S=C(Nc1ccc(Cl)cc1)c1ccc(CN2CCCCC2)s1
4.72 µM: HCT-15
active: A549 0.811 µM
inactive: 786-0 4.25 µM | A498 10.8 µM | ACHN 4.93 µM | BT-549 8.26 µM | CAKI-1 12.2 µM | CCRF-CEM 3.17 µM | COLO 205 2.68 µM | DU-145 19.8 µM | EKVX 12.3 µM | HCC 2998 7.16 µM | HCT-116 1.8 µM | HL-60 1.81 µM | HT-29 3.5 µM | Hs-578T 37.9 µM | IGROV-1 2.86 µM | K562 2.09 µM | KM12 5.43 µM | LOX IMVI 2.48 µM | M14 4.09 µM | MCF7 13.9 µM | MDA-MB-435 4.03 µM | MDA-N 2.94 µM | MOLT-4 2.77 µM | NCI-H23 3.35 µM | NCI-H460 4.62 µM | NCI-H522 21.9 µM | NCI/ADR-RES 16.8 µM | OVCAR-3 31.1 µM | OVCAR-4 12.5 µM | OVCAR-5 1.56 µM | OVCAR-8 4.22 µM | PC-3 18.5 µM | RPMI-8226 3.02 µM | SF-268 36.3 µM | SF-539 24.9 µM | SK-MEL-28 4.24 µM | SK-MEL-2 25.1 µM | SK-MEL-5 3.08 µM | SN12C 11.9 µM | SR 2.9 µM | SW-620 4.4 µM | U-251 10.1 µM | UACC-257 10.6 µM | UACC-62 5.22 µM | UO-31 7.8 µM
